{"source": "PubChem BioAssay AID1259407", "about": "(Chemical Carcinogenesis Research Information System (CCRIS), 2018)", "system": "CCRIS mutagenicity, Ames/micronucleus/aberration tests", "experiment": "CCRIS mutagenicity studies", "key": {"[1]": {"conditions": "Test System: AMES SALMONELLA TYPHIMURIUM, Strain/Indicator: TA98, Metabolic Activation: NONE, Method: STANDARD PLATE"}, "[2]": {"conditions": "Test System: AMES SALMONELLA TYPHIMURIUM, Strain/Indicator: TA100, Metabolic Activation: NONE, Method: STANDARD PLATE"}}, "note": "The source made the active and inactive calls. The rule behind the calls is not given here."}
{"smiles": "Nc1cc2c(cc1[N+](=O)[O-])[nH]c1ccccc12", "values": [{"measurement": "mutagenic call", "setting": "[1]", "value": "active; positive"}, {"measurement": "mutagenic call", "setting": "Test System: AMES SALMONELLA TYPHIMURIUM, Strain/Indicator: TA98, Metabolic Activation: RAT, LIVER, S-9, PHENOBARBITAL, Method: STANDARD PLATE", "value": "active; positive"}, {"measurement": "mutagenic call", "setting": "[2]", "value": "active; positive"}, {"measurement": "mutagenic call", "setting": "Test System: AMES SALMONELLA TYPHIMURIUM, Strain/Indicator: TA100, Metabolic Activation: RAT, LIVER, S-9, PHENOBARBITAL, Method: STANDARD PLATE", "value": "active; positive"}, {"measurement": "mutagenic call", "setting": "Test System: AMES SALMONELLA TYPHIMURIUM, Strain/Indicator: TA1537, Metabolic Activation: NONE, Method: STANDARD PLATE", "value": "active; positive"}, {"measurement": "mutagenic call", "setting": "Test System: AMES SALMONELLA TYPHIMURIUM, Strain/Indicator: TA1537, Metabolic Activation: RAT, LIVER, S-9, PHENOBARBITAL, Method: STANDARD PLATE", "value": "active; positive"}, {"measurement": "mutagenic call", "setting": "Test System: AMES SALMONELLA TYPHIMURIUM, Strain/Indicator: TA1538, Metabolic Activation: NONE, Method: STANDARD PLATE", "value": "active; positive"}, {"measurement": "mutagenic call", "setting": "Test System: AMES SALMONELLA TYPHIMURIUM, Strain/Indicator: TA1538, Metabolic Activation: RAT, LIVER, S-9, PHENOBARBITAL, Method: STANDARD PLATE", "value": "active; positive"}, {"measurement": "mutagenic call", "setting": "Test System: AMES SALMONELLA TYPHIMURIUM, Strain/Indicator: TA1977, Metabolic Activation: NONE, Method: STANDARD PLATE", "value": "active; positive"}, {"measurement": "mutagenic call", "setting": "Test System: AMES SALMONELLA TYPHIMURIUM, Strain/Indicator: TA1977, Metabolic Activation: RAT, LIVER, S-9, PHENOBARBITAL, Method: STANDARD PLATE", "value": "active; positive"}]}
{"smiles": "O[C@H]1C=Cc2c(ccc3ncccc23)[C@@H]1O", "values": [{"measurement": "mutagenic call", "setting": "Test System: AMES SALMONELLA TYPHIMURIUM, Strain/Indicator: TA100, Metabolic Activation: RAT, LIVER, S-9, AROCLOR 1254, Method: STANDARD PLATE", "value": "inactive; negative"}]}
{"smiles": "Cc1ccc(/C=C/c2ccc(N)cc2)cc1", "values": [{"measurement": "mutagenic call", "setting": "Test System: AMES SALMONELLA TYPHIMURIUM, Strain/Indicator: TA98(1,8-DNP6), Metabolic Activation: NONE, Method: STANDARD PLATE", "value": "inactive; negative"}, {"measurement": "mutagenic call", "setting": "Test System: AMES SALMONELLA TYPHIMURIUM, Strain/Indicator: TA98(1,8-DNP6), Metabolic Activation: S-9, Method: STANDARD PLATE", "value": "active; positive"}, {"measurement": "mutagenic call", "setting": "[1]", "value": "inactive; negative"}, {"measurement": "mutagenic call", "setting": "Test System: AMES SALMONELLA TYPHIMURIUM, Strain/Indicator: TA98, Metabolic Activation: RAT LIVER S9, AROCHLOR, Method: STANDARD PLATE", "value": "active; positive"}, {"measurement": "mutagenic call", "setting": "Test System: AMES SALMONELLA TYPHIMURIUM, Strain/Indicator: TA98, Metabolic Activation: S-9, Method: STANDARD PLATE", "value": "active; positive"}, {"measurement": "mutagenic call", "setting": "[2]", "value": "inactive; negative"}, {"measurement": "mutagenic call", "setting": "Test System: AMES SALMONELLA TYPHIMURIUM, Strain/Indicator: TA100, Metabolic Activation: RAT, LIVER, S9, AROCLOR, Method: STANDARD PLATE", "value": "active; positive"}, {"measurement": "mutagenic call", "setting": "Test System: AMES SALMONELLA TYPHIMURIUM, Strain/Indicator: TA100, Metabolic Activation: S-9, Method: STANDARD PLATE", "value": "active; positive"}]}
{"smiles": "O=C/C=C\\C=O", "values": [{"measurement": "mutagenic call", "setting": "End Point: In vitro micronucleus, Test System: Mouse lymphoma L5178Y cells, Metabolic Activation: None", "value": "active; positive"}, {"measurement": "mutagenic call", "setting": "Test System: AMES SALMONELLA TYPHIMURIUM, Strain/Indicator: TA104, Metabolic Activation: NONE, Method: PREINCUBATION", "value": "active; positive"}, {"measurement": "mutagenic call", "setting": "Test System: Mouse lymphoma, Strain/Indicator: L5178Y (tk+/tk-), Metabolic Activation: None, Method: Preincubation", "value": "active; positive"}]}
{"smiles": "Cn1cc(C[C@@]2(O)C(=O)O[C@@H]3[C@@H](O)CO[C@@]32O)c2ccccc21", "values": [{"measurement": "mutagenic call", "setting": "[1]", "value": "active; positive"}, {"measurement": "mutagenic call", "setting": "Test System: AMES SALMONELLA TYPHIMURIUM, Strain/Indicator: TA98, Metabolic Activation: RAT, LIVER, S-9, PCB, Method: STANDARD PLATE", "value": "active; positive"}, {"measurement": "mutagenic call", "setting": "[2]", "value": "active; positive"}, {"measurement": "mutagenic call", "setting": "Test System: AMES SALMONELLA TYPHIMURIUM, Strain/Indicator: TA100, Metabolic Activation: RAT, LIVER, S-9, PCB, Method: STANDARD PLATE", "value": "active; positive"}]}
{"smiles": "COc1ccc2oc3cc(O)cc(O)c3c(=O)c2c1", "values": [{"measurement": "mutagenic call", "setting": "Test System: AMES SALMONELLA TYPHIMURIUM, Strain/Indicator: TA97, Metabolic Activation: RAT, LIVER, S-9, PHENOBARBITAL AND 5,6-BENZOFLAVONE, Method: PREINCUBATION", "value": "active; positive"}, {"measurement": "mutagenic call", "setting": "Test System: AMES SALMONELLA TYPHIMURIUM, Strain/Indicator: TA98, Metabolic Activation: RAT, LIVER, S-9, PHENOBARBITAL AND 5,6-BENZOFLAVONE, Method: PREINCUBATION", "value": "active; positive"}, {"measurement": "mutagenic call", "setting": "Test System: AMES SALMONELLA TYPHIMURIUM, Strain/Indicator: TA100, Metabolic Activation: RAT, LIVER, S-9, PHENOBARBITAL AND 5,6-BENZOFLAVONE, Method: PREINCUBATION", "value": "active; positive"}, {"measurement": "mutagenic call", "setting": "Test System: AMES SALMONELLA TYPHIMURIUM, Strain/Indicator: TA2637, Metabolic Activation: RAT, LIVER, S-9, PHENOBARBITAL AND 5,6-BENZOFLAVONE, Method: PREINCUBATION", "value": "active; positive"}]}
{"smiles": "C[C@H](CCC(=O)O)[C@H]1CC[C@H]2[C@@H]3CC[C@@H]4C[C@@H](O)CC[C@]4(C)[C@H]3CC(=O)[C@]12C", "values": [{"measurement": "mutagenic call", "setting": "Test System: AMES SALMONELLA TYPHIMURIUM, Strain/Indicator: TA98, Metabolic Activation: NONE, Method: FLUCTUATION TEST", "value": "inactive; negative"}, {"measurement": "mutagenic call", "setting": "Test System: AMES SALMONELLA TYPHIMURIUM, Strain/Indicator: TA98, Metabolic Activation: NONE, Method: PREINCUBATION", "value": "inactive; negative"}, {"measurement": "mutagenic call", "setting": "Test System: AMES SALMONELLA TYPHIMURIUM, Strain/Indicator: TA98, Metabolic Activation: RAT, LIVER, S-9, PCB, Method: PREINCUBATION", "value": "inactive; negative"}, {"measurement": "mutagenic call", "setting": "Test System: AMES SALMONELLA TYPHIMURIUM, Strain/Indicator: TA100, Metabolic Activation: NONE, Method: FLUCTUATION TEST", "value": "inactive; negative"}]}
{"smiles": "N[C@@H](CCC(=O)N(CC(=O)O)C(=O)[C@@H](N)CSCCCl)C(=O)O", "values": [{"measurement": "mutagenic call", "setting": "[2]", "value": "active; positive"}]}
